Laboratory results from patent US10052415B2, “Tropoelastin for promoting endothelial cell adhesion or migration” (University of Utah Research Foundation, priority 2005, dated 2018).
Ends that are not written are not given here.

Columns and labels:
Assay type in all cases: cell-based
[1] = tested on: human aortic endothelial cells (HuAEC); assay: Boyden chamber migration assay, HuAEC; conditions: FIG. 3; for migration of HuAECs: 200 ng/ml Tropoelastin, 10 μM peptides, BSA control
Experimental: Migration of HuAECs to BSA, fibronectin, and recombinant tropoelastin was measured.
We assayed the hexamer VGVAPG (SEQ ID No. 5). This hexameric sequence is repeated multiple times within the full length tropoelastin protein. […] We additionally assayed a 17 residue C-terminal fragment of the tropoelastin protein. This 17 amino acid residue is depicted in SEQ ID NO: 6 (IFPGGACLGKACGRKRK).
(§1) Briefly, 16 h before the assay, 70% confluent 75 cm^2 flasks of human melanoma A2058 cell (ATCC, passage 3-12) or human aortic endothelial cells (HAEC; Cambrex, passage 4-7) were kept in basal media (dMEM+0.1% BSA, or EBM-2+1% FCS, respectively). Cells were lifted with 0.25% Trypsin/1 mM EDTA, diluted in 0.5% BSA (dMEM) and washed 3 times in basal media (dMEM+0.1% BSA) or (EBM-2+0.1% FCS,) and recovered in suspension at working density (2×10^6/ml for A2058 or 1.5×10^6 HAEC) for 1 h at 37° C. (5% CO2). For migration-inhibition assays, the cells were preincubated during the recovery period for 30 minutes in 25 μg/ml anti-integrin antibodies (Chemicon, Temecula, Calif.) or control IgG (Jackson ImmunoResearch, Inc.). All migration assays were performed in triplicate in a 48-well Boyden chamber apparatus (NeuroProbe, Cabin John, Md.). The recovered cells were added to the bottom chambers in a volume of 30 μl. The wells were overlayed with an 8 μm-pore polycarbonate membrane (NeuroProbe, Cabin John, Md.) and coated with 100 μg/ml Rat tail collagen (Trevigen, Gaithersburg, Md.) for A2058 cells or acetylated 1% gelatin from porcine skin (Sigma, St. Louis, Mo.) for HAEC. The apparatus was assembled and stored inverted at 37° C. (5 CO2) for a 2 h adhesion-period. The apparatus was re-inverted and 52 μl of the chemoattractants, 10 mg/ml Fibronectin, 200 ng/ml Tropoelastin, 10 μM elastin-derived peptides; VGVAPG (SEQ ID No. 5), and IFPGGACLGKACGRKRK (SEQ ID No. 6 (Cterm peptide) or 0.1% BSA/dMEM (diluent, random migration control), were added to the upper chambers and the migration was allowed to proceed for 2 h in a humidified incubator at 37° C. (5% CO2). The membranes were then removed, fixed in methanol, stained with a Hema 3 stain set (Fisher Scientific, Pittsburgh, Pa.) and mounted migrated-side down to a 50×75 mm glass slide. Before 90% mounting medium (in xylenes) was applied, the non-migrated cells were removed from the exposed, non-migrated face of the membrane with a moistened swab. Readings represent the number of cells migrating through the membrane (the sum of two high power X 20 fields/well, averaged for each sextuplicate-well set).

[2] = tested on: A2058 human melanoma cells; assay: Boyden chamber migration assay, A2058 cells; conditions: FIG. 5
Experimental: as §1, with “The apparatus was re-inverted and 52 μl of the chemoattractants, 10 mg/ml Fibronectin, 200 ng/ml Tropoelastin, 10 μM elastin-derived peptides; VGVAPG (SEQ ID No. 5), and IFPGGACLGKACGRKRK (SEQ ID No. 6 (Cterm peptide) or 0.1% BSA/dMEM (diluent, random migration control), were added to the upper chambers and the migration was allowed to proceed for 2 h in a humidified incubator at 37° C. (5% CO2). The membranes were then removed, fixed in methanol, stained with a Hema 3 stain set (Fisher Scientific, Pittsburgh, Pa.) and mounted migrated-side down to a 50×75 mm glass slide. Before 90% mounting medium (in xylenes) was applied, the non-migrated cells were removed from the exposed, non-migrated face of the membrane with a moistened swab.” left out

[3] = tested on: A2058 human melanoma cells; assay: Cell adhesion assay, A2058 cells; conditions: for adhesion of A2058 cells in comparison to BSA: FIG. 4, coated substrates, peptide 10 μM
Experimental: A2058 cells were assayed for adherence to substrates coated with BSA (control), fibronectin, tropoelastin, or a bioactive fragment of tropoelastin corresponding to a single repeat of the hexameric sequence VGVAPG (SEQ ID No. 5). In comparison to adherence to BSA, A2058 cells adhered to substrates coated with fibronectin tropoelastin, or a bioactive fragment of tropoelastin.
(§2) Cells were harvested with 0.25% trypsin/1 mM EDTA, washed three times in adhesion buffer (0.5% BSA in basal medium), suspended at a working density of 5×10^5/ml in adhesion buffer, and then allowed to recover for 1 h at 37° C. (5% CO2). For integrin-blocking assays, 25 μg/ml anti-integrin antibodies (Chemicon, Temecula, Calif.) or control IgG (Jackson ImmunoResearch Laboratories, Inc, West Grove, Pa.) were added to the cell suspension during the recovery period. During the cell recovery, the coated 96-well plates were washed twice in dPBS and blocked for 1 h at 25° C. in 5.0% BSA (dPBS). The blocking solution was removed, and the wells were washed twice in dPBS. Recovered cells were added to the coated wells in a volume of 100 μl per well and placed at 37° C. for 30 minutes (5% CO2). Following this incubation, the assay plate was inverted and assay wells were washed twice with 100 μl dPBS to remove non-specifically adhered cells. The wells were then fixed in Zamboni fixative, stained with Gill 1 hematoxylin, and overlayed with 80% glycerol. The assay was imaged at 100× magnification, capturing 3 random fields/well on a Zeiss Axiovert 200 inverted microscope equipped with a Zeiss Axiocam digital camera. Readings represent the number of adherent cells/well (average six high powered 100× fields, three taken from each of two separate wells).

CHO cells = assay: Cell adhesion assay on coated culture plates, CHO cells; conditions: culture plates coated with 10 ug/ml protein; 0.1% BSA control
Experimental: (§3) Cells were plated on culture plates coated with either 0.1% BSA (as a control), 10 ug/ml fibronectin (FN), or 10 ug/ml recombinant tropoelastin, and assayed for adherence to the coated substrate.
as §2, with “96-well plates were coated in duplicate overnight at 4° C. with 10 μg/ml collagen, fibronectin, tropoelastin, or 0.1% bovine serum albumin (BSA). Cells” for “Cells”, “Following this incubation, the assay plate was inverted and assay wells were washed twice with 100 μl dPBS to remove non-specifically adhered cells. The wells were then fixed in Zamboni fixative, stained with Gill 1 hematoxylin, and overlayed with 80% glycerol. The assay was imaged at 100× magnification, capturing 3 random fields/well on a Zeiss Axiovert 200 inverted microscope equipped with a Zeiss Axiocam digital camera.” left out

[4] = tested on: human embryonic kidney cells (HEK 293); assay: Cell adhesion assay on coated culture plates, HEK 293 cells; conditions: culture plates coated with 10 ug/ml protein; 0.1% BSA control
Experimental: as §3
as §2, with “96-well plates were coated in duplicate overnight at 4° C. with 10 μg/ml collagen, fibronectin, tropoelastin, or 0.1% bovine serum albumin (BSA). Cells” for “Cells”, “Following this incubation, the assay plate was inverted and assay wells were washed twice with 100 μl dPBS to remove non-specifically adhered cells. The wells were then fixed in Zamboni fixative, stained with Gill 1 hematoxylin, and overlayed with 80% glycerol. The assay was imaged at 100× magnification, capturing 3 random fields/well on a Zeiss Axiovert 200 inverted microscope equipped with a Zeiss Axiocam digital camera.” left out

[5] = tested on: human aortic smooth muscle cells (HuAoSMC); assay: Cell adhesion assay on coated culture plates, HuAoSMC; conditions: culture plates coated with 10 ug/ml protein; 0.1% BSA control
Experimental: as §3
as §2, with “96-well plates were coated in duplicate overnight at 4° C. with 10 μg/ml collagen, fibronectin, tropoelastin, or 0.1% bovine serum albumin (BSA). Cells” for “Cells”, “Following this incubation, the assay plate was inverted and assay wells were washed twice with 100 μl dPBS to remove non-specifically adhered cells. The wells were then fixed in Zamboni fixative, stained with Gill 1 hematoxylin, and overlayed with 80% glycerol. The assay was imaged at 100× magnification, capturing 3 random fields/well on a Zeiss Axiovert 200 inverted microscope equipped with a Zeiss Axiocam digital camera.” left out

[6] = tested on: human aortic endothelial cells (HuAEC); assay: Cell adhesion assay on coated culture plates, HuAEC; conditions: culture plates coated with 10 ug/ml protein; 0.1% BSA control
Experimental: as §3
as §2, with “96-well plates were coated in duplicate overnight at 4° C. with 10 μg/ml collagen, fibronectin, tropoelastin, or 0.1% bovine serum albumin (BSA). Cells” for “Cells”

Row | Substance | level of HuAEC migration relative to comparator [1] | migration of HuAECs [1] | level of A2058 migration compared among tropoelastin and fragments [2] | level of A2058 adhesion relative to full length tropoelastin ([3]; 10 μM of a single repeat of the hexameric sequence) | adhesion of A2058 cells in comparison to BSA [3] | adhesion of CHO cells to the coated substrate (CHO cells) | adhesion of HEK 293 cells to the coated substrate [4] | adhesion of HuAoSMC to the coated substrate [5] | adhesion of HuAEC to the coated substrate [6]
1 | IFPGGACLGKACGRKRK (chemically synthesized bioactive fragment of tropoelastin) [C-terminal fragment] | at least as well as, and possibly better than, the fall length tropoelastin protein | promoted migration of endothelial cells | promoted migration of A2058 cell at comparable levels | – | – | – | – | – | –
2 | VGVAPG | at least as well as, and possibly better than, the fall length tropoelastin protein | promoted migration of endothelial cells | promoted migration of A2058 cell at comparable levels | at a level similar to 10 μg/ml of full length tropoelastin | promoted adhesion of A2058 cells | – | – | – | –
3 | fibronectin [reference compound] | – | – | – | – | adhered | adhered to fibronectin | adhered to fibronectin | adhered to fibronectin | adhered to fibronectin
